Earlier results in patent US20110184060A1, “ORAL DOSAGE FORMS HAVING A HIGH LOADING OF A TRANEXAMIC ACID PRODRUG” (XenoPort, Inc., priority 2010, published 2011).
Where two headings read alike, the source gives them in different places. Blank lines part the entries; values can stand above or below the compound they belong to.

Columns and labels:
[1] = human subjects, prodrug
[2] = statement in words, no data given
[3] = not given; remark: listed apart in the source

SMILES: CCOC(=O)OC(C)OC(=O)[C@H]1CC[C@H](CN)CC1 (relative stereo) [Kabi 2161, 1-(ethoxycarbonyl)oxyethyl trans-4-(aminomethyl)-cyclohexane carboxylate]
oral bioavailability of tranexamic acid [1]: improved oral bioavailability of tranexamic acid

SMILES: CC(OC(=O)NC[C@H]1CC[C@H](C(=O)O)CC1)OC(=O)C(C)C (stereo partly drawn) [Compound (1), 4-({[(2-methylpropanoyloxy)ethoxy]carbonylamino}methyl)cyclohexanecarboxylic acid]
oral bioavailability of tranexamic acid [2]: high oral bioavailability of tranexamic acid

oral bioavailability ([3]; oral tranexamic acid): about 30% | terminal elimination half life ([3]; tranexamic acid): about 2 hours
SMILES: NC[C@H]1CC[C@H](C(=O)O)CC1 [tranexamic acid, trans-4-(aminomethyl)-cyclohexanecarboxylic acid]
reduction of post-operative bleeding (cardiopulmonary bypass surgery, prophylactic administration of lysine analogs such as tranexamic acid): 30-40% | reduction of total blood loss (subjects undergoing total knee arthroplasty, prophylactic administration): up to 50%
